# Test results published in US9938292B2 (GUANGDONG ZHONGSHENG PHARMACEUTICAL CO., LTD, priority 2014, dated 2018).
# Test system: Hedgehog signaling pathway
# Assay: Gli-Luc luciferase reporter gene assay in C3H10T1/2/Gli-Luc cells under Shh-N stimulation
# Assay type: cell-based
# Conditions: Mus musculus, C3H 10T1/2, 24 h, luciferase RLU, read-out: biological activity: IC50 of the inhibitory activities of compounds on the hedgehog pathway
# How it was run: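 C3H10T1/2 cells stably carrying a Gli-responsive luciferase reporter were stimulated with 30 nM Shh-N conditioned medium plus compound (7-point dilutions, duplicate) for 24 h at 37 °C. Luciferase luminescence read from lysates; IC50 by sigmoidal fit of RLU versus log concentration.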
row,IC50 [nM],SMILES
1,100 to 500,"CC(C)c1c(-c2ccc(N3C[C@@H](C)O[C@@H](C)C3)nc2)cnc2c(-c3ccc(C#N)cc3)cccc12 [Embodiment 258, 4-(3-(6-((2S,6R)-2,6-dimethylmorpholino)pyridin-3-yl)-4-isopropylquinolin-8-yl) benzonitrile]"
2,50 to 100,"C[C@@H]1CN(c2ccc(-c3cnc4c(-c5ccc(C#N)cc5)cccc4c3C3CCC3)cn2)C[C@H](C)O1 [Embodiment 259, 4-(4-cyclobutyl-3-(6-((2S,6R)-2,6-dimethylmorpholino)pyridin-3-yl)quinolin-8-yl) benzonitrile]"
3,100 to 500,C[C@@H]1CN(c2ccc(-c3cnc4c(-c5ccc(C#N)cc5)cccc4c3C3=CCCC3)cn2)C[C@H](C)O1 [Embodiment 260]
4,100 to 500,"CC(C)c1ccc(N2CCN(c3cnc4c(-c5ccc(C#N)cc5)cccc4c3C3CC3)CC2)nc1 [Embodiment 261, 4-(4-((4-cyclopropyl-35-isopropylpyridin-2-yl)-3-)-quinolin-8-yl)benzonitrile]"
5,≤ 50,CC(C)(O)c1ccc(C2(O)CCN(c3cnc4c(-c5ccc(C#N)cc5)cccc4c3C3CC3)CC2)nc1 [Embodiment 262]
6,≤ 50,"C[C@@H]1CN(c2ccc(-c3cnc4c(-c5ccccn5)cccc4c3C3CC3)cc2)C[C@H](C)O1 [Embodiment 263, (2S,6R)-4-(5-(4-8-cyclopropyl-(2-pyridinyl)quinolin-3-yl)pyridin-2-yl)-2,6-dimethylmorpholine]"
7,50 to 100,"C[C@@H]1CN(c2ccc(-c3cnc4c(-c5ccc(OC(F)(F)F)cc5)cccc4c3C3CC3)cn2)C[C@H](C)O1 [Embodiment 265, (2S,6R)-4-(5-(4-cyclopropyl-8-(4-(trifluoromethoxy)phenyl)quinolin-3-yl)pyridin-2-yl)-2,6-dimethylmorpholine]"
8,≤ 50,"C[C@H]1CN(c2ccc(-c3cnc4c(-c5ccc(C#N)cc5)cccc4c3C3CC3)cn2)C[C@H](C)O1 [Embodiment 266, 4-(4-cyclopropyl-3-(6-((2S,6S)-2,6-dimethylmorpholino)pyridin-3-yl)quinolin-8-yl) benzonitrile]"
9,≤ 50,"CS(=O)(=O)CCC(=O)N1CCN(c2cnc3c(-c4ccc(C#N)cc4)cccc3c2C2CC2)CC1 [Embodiment 267, 4-(4-cyclopropyl-3-(4-(3-(methylsulfonyl)-3-propanoyl))quinolin-8-yl) benzonitrile]"
10,100 to 500,"COc1c(N2CCC(N3CCCC3)CC2)cnc2c(-c3ccc(C#N)cc3)cccc12 [Embodiment 268, 4-(4-methoxy-3-(4-(pyrrolidin-1-yl)piperidin-1-yl)quinolin-8-yl)benzonitrile]"
11,≤ 50,"C[C@@H]1CN([C@@H]2CCN(c3cnc4c(-c5ccc(C#N)cc5)cccc4c3C3CC3)C[C@@H]2F)C[C@H](C)O1 [Embodiment 269, 4-(4-cyclopropyl-3-((3S,4R)-4-((2S,6R)-2,6-dimethylmorpholino)-3-fluoropiperidin-1-yl)quinolin-8-yl)benzonitrile]"
12,50 to 100,"COc1c(N2CCN(c3ccc(C(C)C)cn3)CC2)cnc2c(-c3ccc(C#N)cc3)cccc12 [Embodiment 270, 4-(3-(4-(5-isopropylpyridin-2-yl)-3-)-4-methoxyquinolin-8-yl) benzonitrile]"
13,100 to 500,"N#Cc1ccc(-c2cccc3c(C4CC4)c(N4CCN(c5cc[nH]c(=O)c5)CC4)cnc23)cc1 [Embodiment 271, 4-(4-cyclopropyl-3-(4-(2-oxo-1,2-dihydropyridin-4-yl)piperazin-1-yl)quinolin-8-yl) benzonitrile]"
